For 24 compounds, IC50 results are on record in patent publication US20250074911A1, “MACROCYCLIC BTK INHIBITORS” (Crossfire Oncology Holding B.V., priority 2021, published 2025).

Assay [1] concerns wt-REC-1 mantle cell lymphoma cells. Description: Cell proliferation assay wt-REC-1 (ATPlite, 72 hours). Format: cell-based. The settings on record: 72 h; read-out: IC50 wt-REC-1. The essentials:
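Luminescent viability read over 72 h, start-of-incubation signal recorded separately to separate growth from cell death. Percentage growth referenced to compound-free 0.3% DMSO wells; IC50 from 4-parameter logistic fit.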

Assay [2] addresses full-length BTK C481S enzyme (Homo sapiens (Human), UniProt Q06187, C481S). Description: Biochemical kinase assay BTK C481S (IMAP). The essentials: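 IC50 values come from IMAP fluorescence polarization after quenching with progressive binding solution. The reaction ran 2 h at room temperature in the dark with 1.2 nM full-length C481S enzyme, 7 μM ATP and 50 nM fluorescein-labelled MBP-derived peptide, following a 1 h dark pre-incubation of compound with enzyme.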

Assay [3] relates to wt-TMD8 diffuse large B-cell lymphoma cells. Description: Cell proliferation assay wt-TMD8 (ATPlite, 120 hours). The assay is classed as cell-based. The settings on record: B-cell; wt-TMD8 cells, 120 hours, ATPlite; read-out: IC50 wt-TMD8. The procedure: Cell proliferation assay wt-TMD8 diffuse large B-cell lymphoma cells were purchased from Tokyo Medical and Dental University and cultured in RPMI-1640 cell culture medium (cat. no. 61870036, Life Technologies), supplemented with 10% (v/v) heat-inactivated fetal bovine calf serum and 1% penicillin/[…]. 1600 cells per well (in 45 μl) were seeded in a white 384-well culture plate (cat. no. 781080, Greiner Bio-One) and allowed to rest for at least 5 hours at 37° C., 95% humidity, and 5% CO2. 5 μl compound solution was added to the cells and incubation was continued for 120 hours (5 days), followed by addition of 24 μl ATPlite 1Step™ (PerkinElmer, Groningen, The Netherlands) solution was added to each well. Luminescence was recorded on an Envision multimode reader. The cell signal at the start of incubation was recorded separately in order to distinguish between cell population growth and cell death. In addition, maximum growth was determined by incubation of a duplicate without compound in the presence of 0.3% DMSO. Percentage growth was used as the main y-axis signal.

In another assay the test system is REC-1 T474I cell lines. In words: Cell proliferation assay REC-1 BTK T474I knock-in cells (ATPlite, 72 hours). The assay is classed as cell-based. The settings on record: Homo sapiens, Rec1; 72 hours; read-out: IC50 REC-1 T474I. In outline: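 REC-1 cells carrying CRISPR knock-in mutant BTK, single-cell cloned and sequence-confirmed, were exposed to compound for 72 h and read by ATPlite luminescence. Percentage growth was calculated against the signal at the start of incubation and against untreated 0.3% DMSO wells as maximum growth.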

For assay [4], the target named is full-length wt-BTK enzyme (Homo sapiens (Human), UniProt Q06187). Description: Biochemical kinase assay wt-BTK (IMAP). The essentials:
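Compound and enzyme (final 1.2 nM) were pre-incubated for 1 h at RT, after which the reaction was started with 4 μM ATP plus 50 nM fluorescein-MBP substrate peptide. After 2 h in the dark, the IMAP progressive binding reagent stopped the reaction, and phosphorylation was read by fluorescence polarization.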

Sequence of full-length BTK C481S enzyme (Q06187 whole entry C481S): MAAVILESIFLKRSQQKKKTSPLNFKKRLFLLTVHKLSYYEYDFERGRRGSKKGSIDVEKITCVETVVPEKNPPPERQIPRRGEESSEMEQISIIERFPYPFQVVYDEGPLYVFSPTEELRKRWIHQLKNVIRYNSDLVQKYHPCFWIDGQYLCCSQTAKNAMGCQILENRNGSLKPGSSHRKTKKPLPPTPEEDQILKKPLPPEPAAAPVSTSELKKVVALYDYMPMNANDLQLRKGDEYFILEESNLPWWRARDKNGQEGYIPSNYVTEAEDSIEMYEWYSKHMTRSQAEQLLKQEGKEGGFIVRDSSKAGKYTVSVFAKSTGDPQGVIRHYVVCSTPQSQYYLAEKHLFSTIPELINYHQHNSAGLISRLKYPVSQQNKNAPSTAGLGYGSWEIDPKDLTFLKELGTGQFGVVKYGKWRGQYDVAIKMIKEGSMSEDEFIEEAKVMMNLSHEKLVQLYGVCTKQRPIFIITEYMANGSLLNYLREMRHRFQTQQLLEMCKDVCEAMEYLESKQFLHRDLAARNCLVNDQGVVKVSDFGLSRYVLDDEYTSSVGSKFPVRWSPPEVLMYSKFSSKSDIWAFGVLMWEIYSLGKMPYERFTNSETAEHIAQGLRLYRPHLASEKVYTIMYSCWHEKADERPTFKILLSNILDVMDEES
Sequence of full-length wt-BTK enzyme (Q06187 whole entry): as the sequence (Q06187 whole entry C481S) above, with S481C counted along it

For `Nc1ncc2c3c1c(-c1ccc(C(=O)Nc4cc(C(F)(F)F)ccn4)cc1)nn3[C@@H]1CCC[C@H](C1)C(=O)NCC/C=C\C2` [Example 86], the IC50 was in the range of 100 to 1000 nM in assay [1]; 50 to 500 nM in assay [2]; 100 to 1000 nM in assay [3]; 500 to 10000 nM in the assay on REC-1 T474I cell lines; 5 to 50 nM in assay [4].
Take `C[C@@H]1CCn2nc(-c3ccc(C(=O)Nc4cc(C(F)(F)F)ccn4)cc3)c3c(N)ncc(c32)/C=C/CN2CC[C@H]2C(=O)N1` [Example 55]: the IC50 in assay [1] was 100 to 1000 nM; in assay [2] it was less than 5 nM; in assay [3], less than 100 nM; with REC-1 T474I cell lines, 500 to 10000 nM; in assay [4] it was less than 5 nM.
Regarding `CC1CCn2nc(-c3ccc(C(=O)Nc4cc(C(F)(F)F)ccn4)cc3)c3c(N)ncc(c32)/C=C/C(O)CCCCC(=O)N1` (stereo not drawn) [Example 75], the half-inhibitory concentration (IC50) in assay [1] was 100 to 1000 nM; in assay [2], less than 5 nM; in assay [3], less than 100 nM; in the assay with REC-1 T474I cell lines it was 500 to 10000 nM; in assay [4] it was less than 5 nM.
`CN1C/C=C/c2cnc(N)c3c(-c4ccc(C(=O)Nc5cc(C(F)(F)F)ccn5)cc4)nn(c23)[C@@H]2CCC[C@H](C2)C(=O)NCC1` [Example 3]: the IC50 is 100 to 1000 nM in assay [1]; less than 5 nM in assay [2]; less than 100 nM in assay [3]; 500 to 10000 nM with REC-1 T474I cell lines; less than 5 nM in assay [4].
`C[C@@H]1CCn2nc(-c3ccc(C(=O)Nc4cc(C(F)(F)F)ccn4)cc3)c3c(N)ncc(c32)/C=C/CN2CCN[C@H](C2)C(=O)N1` [Example 142]: the IC50 in assay [1] is 100 to 1000 nM; in assay [2], less than 5 nM; in assay [3], less than 100 nM; with REC-1 T474I cell lines it was 500 to 10000 nM; in assay [4], less than 5 nM.
Consider `Nc1ncc2c3c1c(-c1ccc(C(=O)Nc4cc(C(F)(F)F)ccn4)cc1)nn3[C@@H]1CCC[C@H](C1)NC(=O)CCCC(F)(F)/C=C/2` [Example 138], for which the IC50 in assay [1] was less than 100 nM; in assay [2], 5 to 50 nM; in assay [3] it was less than 100 nM; in the assay with REC-1 T474I cell lines, 500 to 10000 nM; in assay [4], 5 to 50 nM.
Regarding `CC(=O)N1CC/C=C/c2cnc(N)c3c(-c4ccc(C(=O)Nc5cc(C(F)(F)F)ccn5)cc4)nn(c23)[C@@H]2CCC[C@H](C2)NC(=O)C1` [Example 35], the IC50 is less than 100 nM in assay [1]; less than 5 nM in assay [2]; less than 100 nM in assay [3]; 100 to 500 nM in the assay on REC-1 T474I cell lines; less than 5 nM in assay [4].
On to `COc1cc(-c2nn3c4c(cnc(N)c24)/C=C/CCN[C@H](C)CC(=O)N[C@@H]2CCC[C@@H]3C2)ccc1C(=O)Nc1cc(C(F)(F)F)ccn1` [Example 194], for which the IC50 was less than 100 nM in assay [1]; less than 5 nM in assay [2]; less than 100 nM in assay [3]; 500 to 10000 nM in the assay with REC-1 T474I cell lines; less than 5 nM in assay [4].
On to `Nc1ncc2c3c1c(-c1ccc(C(=O)Nc4cc(C(F)(F)F)ccn4)cc1)nn3[C@@H]1CCCN(C1)C(=O)CCCC/C=C/2` [Example 77], for which the IC50 in assay [1] was in the range of 100 to 1000 nM; in assay [2], 5 to 50 nM; in assay [3], 100 to 1000 nM; in the assay on REC-1 T474I cell lines, 500 to 10000 nM; in assay [4] it was 5 to 50 nM.
`Nc1ncc2c3c1c(-c1ccc(C(=O)Nc4ccccn4)cc1)nn3[C@@H]1CCC[C@H](C1)NC(=O)CCC/C=C\C2` [Example 99b]: the IC50 was 100 to 1000 nM in assay [1]; 5 to 50 nM in assay [2]; less than 100 nM in assay [3]; 500 to 10000 nM in the assay on REC-1 T474I cell lines; 5 to 50 nM in assay [4].
Turning to `CN1CC/C=C/c2cnc(N)c3c(-c4ccc(C(=O)Nc5cc(C(F)(F)F)ccn5)cc4)nn(c23)[C@@H]2CCC[C@H](C2)NC(=O)C1` [Example 30], the IC50 in assay [1] was less than 100 nM; in assay [2] it was less than 5 nM; in assay [3], less than 100 nM; in the assay on REC-1 T474I cell lines, 100 to 500 nM; in assay [4], less than 5 nM.
For the compound `Nc1ncc2c3c1c(-c1ccc(C(=O)Nc4cc(C(F)(F)F)ccn4)cc1)nn3[C@@H]1CCCN(C1)C(=O)CCCCCCCC/C=C/2` [Example 81], the IC50 in assay [1] was less than 100 nM; in assay [2] it was less than 5 nM; in assay [3], less than 100 nM; in the assay on REC-1 T474I cell lines, 100 to 500 nM; in assay [4], less than 5 nM.
Regarding `[2H]C1CCCCNC(=O)[C@@H]2CCC[C@H](C2)n2nc(-c3ccc(C(=O)Nc4cc(C(F)(F)F)ccn4)cc3)c3c(N)ncc(c32)C1[2H]` (stereo partly drawn) [Example 128], the IC50 in assay [1] was 100 to 1000 nM; in assay [2], less than 5 nM; in assay [3], less than 100 nM; in the assay on REC-1 T474I cell lines, 100 to 500 nM; in assay [4], less than 5 nM.
As to `Nc1ncc2c3c1c(-c1ccc(C(=O)Nc4ccccn4)cc1)nn3[C@@H]1CCC[C@H](C1)NC(=O)CCCC/C=C/2` [Example 23], the IC50 in assay [1] is less than 100 nM; in assay [2], less than 5 nM; in assay [3], less than 100 nM; in the assay on REC-1 T474I cell lines, 100 to 500 nM; in assay [4], less than 5 nM.
Regarding `COc1ccc(F)cc1C(=O)NCc1ccc(-c2nc3n4c(cnc(N)c24)/C=C/CCN[C@H](C)CC(=O)N[C@@H]2CCC[C@@H]3C2)cc1` [Example 212], the IC50 in assay [1] was less than 100 nM; in assay [2] it was less than 5 nM; in assay [3], less than 100 nM; with REC-1 T474I cell lines, 500 to 10000 nM; in assay [4] it was less than 5 nM.
With `CC1NC/C=C/c2cnc(N)c3c(-c4ccc(C(=O)Nc5cc(C(F)(F)F)ccn5)cc4)nn(c23)[C@@H]2CCC[C@H](C2)NC1=O` (stereo partly drawn) [Example 145], the IC50 is 1000 to 10000 nM in assay [1]; less than 5 nM in assay [2]; less than 100 nM in assay [3]; 500 to 10000 nM in the assay with REC-1 T474I cell lines; less than 5 nM in assay [4].
As for `Nc1ncc2c3c1c(-c1ccc(C(=O)Nc4cc(C(F)(F)F)ccn4)cc1)nn3[C@@H]1CCC[C@H](C1)NC(=O)CNC/C=C\C2` [Example 105], the IC50 fell in the range of 1000 to 10000 nM in assay [1]; 5 to 50 nM in assay [2]; 100 to 1000 nM in assay [3]; 500 to 10000 nM in the assay on REC-1 T474I cell lines; 5 to 50 nM in assay [4].
With `Nc1ncc2n3c(nc(-c4ccc(C(=O)Nc5cc(C(F)(F)F)ccn5)cc4)c13)[C@@H]1CC[C@H](C1)NC(=O)CNCC/C=C/2` [Example 209], the IC50 was less than 100 nM in assay [1]; less than 5 nM in assay [2]; less than 100 nM in assay [3]; 500 to 10000 nM with REC-1 T474I cell lines; less than 5 nM in assay [4].
In the case of `CC(=O)N1CCC/C=C/c2cnc(N)c3c(-c4ccc(C(=O)Nc5cc(C(F)(F)F)ccn5)cc4)nn(c23)[C@@H]2CCC[C@H](C2)NC(=O)C1` [Example 167], the IC50 in assay [1] was less than 100 nM; in assay [2], less than 5 nM; in assay [3], less than 100 nM; in the assay on REC-1 T474I cell lines, 100 to 500 nM; in assay [4] it was less than 5 nM.
Regarding `Nc1ncc2c3c1c(-c1ccc(C(=O)Nc4cc(C(F)(F)F)ccn4)cc1)nn3[C@@H]1CCC[C@H](C1)NC(=O)CCC[C@H](O)/C=C/2` [Example 13], the IC50 is 100 to 1000 nM in assay [1]; less than 5 nM in assay [2]; less than 100 nM in assay [3]; 500 to 10000 nM with REC-1 T474I cell lines; less than 5 nM in assay [4].
For `Nc1ncc2c3c1c(-c1ccc(C(=O)Nc4cc(C(F)(F)F)ccn4)cc1)nn3[C@@H]1CCC[C@H](C1)C(=O)NCCCCCCCC2` [Example 119], the IC50 in assay [1] is less than 100 nM; in assay [2] it was less than 5 nM; in assay [3], less than 100 nM; in the assay with REC-1 T474I cell lines it was 500 to 10000 nM; in assay [4], less than 5 nM.
Consider `Nc1ncc2n3c(nc(-c4ccc(C(=O)Nc5cc(C(F)(F)F)ccn5)cc4)c13)[C@@H]1CCC[C@H](C1)NC(=O)CCOC/C=C/2` [Example 178], for which the IC50 was less than 100 nM in assay [1]; less than 5 nM in assay [2]; less than 100 nM in assay [3]; 100 to 500 nM in the assay with REC-1 T474I cell lines; less than 5 nM in assay [4].
In the case of `C[C@@H]1CC(=O)N[C@@H]2CCC[C@H](C2)n2nc(-c3ccc(C(=O)Nc4cc(C(F)(F)F)ccn4)cc3)c3c(N)ncc(c32)/C=C/CN1` [Example 160], the IC50 was less than 100 nM in assay [1]; less than 5 nM in assay [2]; less than 100 nM in assay [3]; 100 to 500 nM in the assay on REC-1 T474I cell lines; less than 5 nM in assay [4].
Turning to `Nc1ncc2c3c1c(-c1ccc(C(=O)Nc4cc(C(F)(F)F)ccn4)cc1)nn3[C@@H]1CCC[C@H](C1)NC(=O)CCC[C@@H](O)/C=C/2` [Example 14], the IC50 in assay [1] was 100 to 1000 nM; in assay [2], less than 5 nM; in assay [3] it was less than 100 nM; in the assay with REC-1 T474I cell lines it was 500 to 10000 nM; in assay [4], less than 5 nM.
